Assay results reported in US6887869B2, “Mikanolide derivatives, their preparation and therapeutic uses” (Societe de Conseils de Recherches et d'Applications …, priority 2001, dated 2005).

What was measured:
[1] = test system: DU-145 (human prostate cancer cells); assay: Measurement of cell proliferation (WST1), DU-145; assay type: cell-based; settings: DU-145, 96 hours treatment, read-out: IC50 inhibitory concentration, proliferation of DU-145 cell lines
Experimental: (§1) DU-145 (human prostate cancer cells), HT29 (cancer of the colon) and Mia-PaCa2 (human pancreatic cancer cells) were acquired from the American Tissue Culture Collection (Rockville, Md., USA).
(§2) Measurement of Cell Proliferation
(§3) The cells placed in 80 μl of Dulbecco's modified Eagle medium (Gibco-BRL, Cergy-Pontoise, France) completed with 10% of foetal calf serum inactivated by heating (Gibco-BRL, Cergy-Pontoise, France), 50000 units/l of penicillin and 50 mg/l streptomycin (Gibco-BRL, Cergy-Pontoise, France), and 2 mM of glutamine (Gibco-BRL, Cergy-Pontoise, France) were seeded on a 96-well plate on day 0. The cells were treated on day 1 for 96 hours with increasing concentrations of each of the compounds to be tested. At the end of the of this period, quantification of the cell proliferation is evaluated by a calorimetric test based on the cleavage of the tetrazolium salt WST1 by mitochondrial dehydrogenases in viable cells leading to the formation of formazan (Boehringer Mannheim, Meylan, France). These tests are carried out in duplicate with 8 determinations per concentration tested. The products are solubilised in dimethylsulphoxide (DMSO) at 10^−2 M and finally used in culture with 0.5% DMSO.

[2] = test system: Mia-PaCa2 (human pancreatic cancer cells); assay: Measurement of cell proliferation (WST1), Mia-PaCa2; assay type: cell-based; settings: MIA PaCa-2, Mia-Paca2, 96 hours treatment, read-out: IC50 inhibitory concentration, proliferation of Mia-Paca2 cell lines
Experimental: as §1, §2, §3

| SMILES | IC50 [1] [µM] | IC50 [2] [µM] |
| --- | --- | --- |
| CC1C(=O)OC2CC3(C)OC3C(OC(=O)c3ccc(C(F)(F)F)cc3)C(N(C)C)C3=CC(OC3=O)C21 (stereo not drawn) [Example 28, 12-(dimethylamino)-3,8-dimethyl-4,14-dioxo-5,9,15-trioxatetracyclo[11.2.1.0^2,6.0^8,10]hexadec-13(16)-en-11-yl 4-(trifluoromethyl)benzoate] | ≤ 30 | ≤ 30 |
| CC1C(=O)OC2CC3(C)OC3C(OC(=O)Cc3cccs3)C(N(C)C)C3=CC(OC3=O)C21 (stereo not drawn) [Example 35, 12-(dimethylamino)-3,8-dimethyl-4,14-dioxo-5,9,15-trioxatetracyclo[11.2.1.0^2,6.0^8,10]hexadec-13(16)-en-11-yl 2-thienylacetate] |  | ≤ 30 |
| CCOC(=O)OC1C(N2CCC(C)CC2)C2=CC(OC2=O)C2C(CC3(C)OC13)OC(=O)C2C (stereo not drawn) [Example 19, ethyl 3,8-dimethyl-12-(4-methylpiperidino)-4,14-dioxo-5,9,15-trioxatetracyclo[11.2.1.0^2,6.0^8,10]hexadec-13(16)-en-11-yl carbonate] |  | ≤ 30 |
| CC1CCN(C2C3=CC(OC3=O)C3C(CC4(C)OC4C2O)OC(=O)C3C)CC1 (stereo not drawn) [Example 9, 11-hydroxy-3,8-dimethyl-12-(4-methylpiperidino)-5,9,15-trioxatetracyclo[11.2.1.0^2,6.0^8,10]hexadec-13(16)-ene-4,14-dione] | ≤ 30 | ≤ 30 |
| CC1C(=O)OC2CC3(C)OC3C(OC(=O)COc3ccccc3)C(N(C)C)C3=CC(OC3=O)C21 (stereo not drawn) [Example 36, 12-(dimethylamino)-3,8-dimethyl-4,14-dioxo-5,9,15-trioxatetracyclo[11.2.1.0^2,6.0^8,10]hexadec-13(16)-en-11-yl phenoxyacetate] |  | ≤ 30 |
| CC1C(=O)OC2CC3(C)OC3C(O)C(N(C)C)C3=CC(OC3=O)C21 (stereo not drawn) [Example 5, 12-dimethylamino-11-hydroxy-3,8-dimethyl-5,9,15-trioxatetracyclo[11.2.1.0^2,6.0^8,10]hexadec-13(16)-ene-4,14-dione] |  | ≤ 30 |
| CC1C(=O)OC2CC3(C)OC3C(OC(=O)C3CCCCC3)C(N(C)C)C3=CC(OC3=O)C21 (stereo not drawn) [Example 24, 12-(dimethylamino)-3,8-dimethyl-4,14-dioxo-5,9,15-trioxatetracyclo[11.2.1.0^2,6.0^8,10]hexadec-13(16)-en-11-yl cyclohexanecarboxylate] | ≤ 30 | ≤ 30 |
| CC1C(=O)OC2CC3(C)OC3C(OC(=O)c3cc4ccccc4s3)C(N(C)C)C3=CC(OC3=O)C21 (stereo not drawn) [Example 31, 12-(dimethylamino)-3,8-dimethyl-4,14-dioxo-5,9,15-trioxatetracyclo[11.2.1.0^2,6.0^8,10]hexadec-13(16)-en-11-yl 1-benzothiophene-2-carboxylate] | ≤ 30 | ≤ 30 |
| CC1C(=O)OC2CC3(C)OC3C(OC(=O)c3ccco3)C(N(C)C)C3=CC(OC3=O)C21 (stereo not drawn) [Example 32, 12-(dimethylamino)-3,8-dimethyl-4,14-dioxo-5,9,15-trioxatetracyclo[11.2.1.0^2,6.0^8,10]hexadec-13(16)-en-11-yl 2-furoate] | ≤ 30 | ≤ 30 |
| CC1C(=O)OC2CC3(C)OC3C(O)C(N3CCCC3)C3=CC(OC3=O)C21 (stereo not drawn) [Example 10, 11-hydroxy-3,8-dimethyl-12-pyrrolidino-5,9,15-trioxatetracyclo[11.2.1.0^2,6.0^8,10]hexadec-13(16)-ene-4,14-dione] |  | ≤ 30 |
| CC1C(=O)OC2CC3(C)OC3C(OC(=O)c3cccs3)C(N(C)C)C3=CC(OC3=O)C21 (stereo not drawn) [Example 29, 12-(dimethylamino)-3,8-dimethyl-4,14-dioxo-5,9,15-trioxatetracyclo[11.2.1.0^2,6.0^8,10]hexadec-13(16)-en-11-yl 2-thiophenecarboxylate] | ≤ 30 | ≤ 30 |
| COc1ccccc1NC(=O)OC1C(N(C)C)C2CC(OC2=O)C2C(CC3(C)OC13)OC(=O)C2C (stereo not drawn) [Example 39, 8-(dimethylamino)-3,10a-dimethyl-2,6-dioxodecahydro-4,7-methenofuro[3,2-c]oxireno[f]oxacycloundecin-9-yl 2-methoxyphenylcarbamate] | ≤ 30 | ≤ 30 |
| CC(C)CSCC1C(=O)OC2CC3(C)OC3C(O)C(SCC(C)C)C3=CC(OC3=O)C21 (stereo not drawn) [Example 20, 11-hydroxy-12-isobutylsulphanyl-3-isobutylsulphanylmethyl-8-methyl-5,9,15-trioxatetracyclo[11.2.1.0^2,6.0^8,10]hexadec-13(16)-ene-4,14-dione] |  | ≤ 30 |
| CC1C(=O)OC2CC3(C)OC3C(OC(=O)c3ccc(F)cc3)C(N(C)C)C3=CC(OC3=O)C21 (stereo not drawn) [Example 25, 12-(dimethylamino)-3,8-dimethyl-4,14-dioxo-5,9,15-trioxatetracyclo[11.2.1.0^2,6.0^8,10]hexadec-13(16)-en-11-yl 4-fluorobenzoate] | ≤ 30 | ≤ 30 |
| CC1C(=O)OC2CC3(C)OC3C(OC(=O)CC(C)(C)C)C(N(C)C)C3=CC(OC3=O)C21 (stereo not drawn) [Example 30, 12-(dimethylamino)-3,8-dimethyl-4,14-dioxo-5,9,15-trioxatetracyclo[11.2.1.0^2,6.0^8,10]hexadec-13(16)-en-11-yl 3,3-dimethylbutanoate] | ≤ 30 | ≤ 30 |
| CSc1ccccc1NC(=O)OC1C(N(C)C)C2CC(OC2=O)C2C(CC3(C)OC13)OC(=O)C2C (stereo not drawn) [Example 40, 8-(dimethylamino)-3,10a-dimethyl-2,6-dioxodecahydro-4,7-metheno-furo[3,2-c]oxireno[f]oxacycloundecin-9-yl 2(methylthio)phenylcarbamate] | ≤ 30 | ≤ 30 |
| CCOc1ccccc1NC(=O)OC1C(N(C)C)C2CC(OC2=O)C2C(CC3(C)OC13)OC(=O)C2C (stereo not drawn) [Example 41, 8-(dimethylamino)-3,10a-dimethyl-2,6-dioxodecahydro-4,7-methenofuro[3,2-c]oxireno[f]oxacycloundecin-9-yl 2-ethoxyphenylcarbamate] | ≤ 30 | ≤ 30 |
| CC1C(=O)OC2CC3(C)OC3C(OC(=O)c3ccc([N+](=O)[O-])o3)C(N(C)C)C3=CC(OC3=O)C21 (stereo not drawn) [Example 33, 12-(dimethylamino)-3,8-dimethyl-4,14-dioxo-5,9,15-trioxatetracyclo[11.2.1.0^2,6.0^8,10]hexadec-13(16)-en-11-yl 5-nitro-2-furoate] |  | ≤ 30 |
| CC1C(=O)OC2CC3(C)OC3C(O)C(N3CCC(Cc4ccccc4)CC3)C3=CC(OC3=O)C21 (stereo not drawn) [Example 12, 12-(4-benzylpiperidino)-11-hydroxy-3,8-dimethyl-5,9,15-trioxatetracyclo[11.2.1.0^2,6.0^8,10]hexadec-13(16)-ene-4,14-dione] |  | ≤ 30 |
| CN(C)CC1C(=O)OC2CC3(C)OC3C(O)C(N(C)C)C3=CC(OC3=O)C21 (stereo not drawn) [Example 2, 12-dimethylamino-3-dimethylaminomethyl-11-hydroxy-8-methyl-5,9,15-trioxatetracyclo[11.2.1.0^2,6.0^8,10]hexadec-13(16)-ene-4,14-dione] | ≤ 30 | ≤ 30 |
| CC12CC3OC(=O)C(CN4CCOCC4)C3C3C=C(C(=O)O3)C(N3CCOCC3)C(O)C1O2 (stereo not drawn) [Example 4, 11-hydroxy-8-methyl-12-morpholino-3-morpholinomethyl-5,9,15-trioxatetracyclo[11.2.1.0^2,6.0^8,10]hexadec-13(16)-ene-4,14-dione] |  | ≤ 30 |
| CC1C(=O)OC2CC3(C)OC3C(OC(=O)Nc3csc4ccccc34)C(N(C)C)C3CC(OC3=O)C21 (stereo not drawn) [Example 43, 8-(dimethylamino)-3,10a-dimethyl-2,6-dioxodecahydro-4,7-methenofuro[3,2-c]oxireno[f]oxacycloundecin-9-yl 1-benzothien-3-ylcarbamate] | ≤ 30 | ≤ 30 |
| CC1C(=O)OC2CC3(C)OC3C(OC(=O)Nc3ccc(C(C)(C)C)cc3)C(N(C)C)C3CC(OC3=O)C21 (stereo not drawn) [Example 37, 8-(dimethylamino)-3,10a-dimethyl-2,6-dioxodecahydro-4,7-methenofuro[3,2-c]oxireno[f]oxacycloundecin-9-yl 4-tert-butylphenylcarbamate] |  | ≤ 30 |
| CCCCCCC(=O)OC1C(N(C)C)C2=CC(OC2=O)C2C(CC3(C)OC13)OC(=O)C2C (stereo not drawn) [Example 27, 12-(dimethylamino)-3,8-dimethyl-4,14-dioxo-5,9,15-trioxatetracyclo[11.2.1.0^2,6.0^8,10]hexadec-13(16)-en-11-yl heptanoate] | ≤ 30 | ≤ 30 |
| CC1C(=O)OC2CC3(C)OC3C(OC(=O)Nc3ccsc3)C(N(C)C)C3CC(OC3=O)C21 (stereo not drawn) [Example 42, 8-(dimethylamino)-3,10a-dimethyl-2,6-dioxodecahydro-4,7-methenofuro[3,2-c]oxireno[f]oxacycloundecin-9-yl thien-3-ylcarbamate] | ≤ 30 | ≤ 30 |
| CC1CCN(C2C3=CC(OC3=O)C3C(CC4(C)OC4C2OC(=O)c2ccccc2)OC(=O)C3C)CC1 (stereo not drawn) [Example 18, 3,8-dimethyl-12-(4-methylpiperidino)-4,14-dioxo-11-phenylcarbonyloxy-5,9,15-trioxatetracyclo[11.2.1.0^2,6.0^8,10]hexadec-13(16)-ene] | ≤ 30 | ≤ 30 |
